Experimental data taken from paper PMC9151520 (Archives of Toxicology, 2022).
Several values for one entry are separate records, joined by “and”; a condition that tells them apart may be missing. Equal values may be shown once. Read-outs that look alike come from different tables or passages of the source.

Key:
[1] = system: p53 signaling (p53RE-bla HCT-116 cells); experiment: cells; type: cell-based
[2] = system: p53 signaling (p53RE-bla HCT-116 cells)
[3] = system: p53 signaling (p53RE-bla HCT-116 cells); remark: listed apart in the source
[4] = rat
[5] = system: p53 signaling (p53RE-bla HCT-116 cells); experiment: cells; type: cell-based; remark: listed apart in the source
[6] = system: p53 signaling (p53RE-bla HCT-116 cells); experiment: cells; type: cell-based; set-up: efficacy: unit not given here; conditions: for EC50: HCT-116
in vitro = conditions: male, Sprague Dawley, rat, microsomes, pH 7.4
[7] = system: p53 signaling (p53RE-bla HCT-116 cells); experiment: cells; conditions: Homo sapiens; for Emax: HCT-116, read-out: efficacy
[8] = system: p53 signaling (p53RE-bla HCT-116 cells); experiment: cells; conditions: Homo sapiens; for EC50: HCT-116, read-out: p53 activation EC50, HLM
[9] = read-out: p53 activation EC50, RLM
[10] = Homo sapiens, HCT-116, read-out: efficacy

Row | Structure (SMILES) | p53 activation EC50, No MS [1] | p53 activation Efficacy, No MS [1] | p53 activation EC50, HLM [3] | Viability EC50, HLM (p53RE-bla HCT-116 cells) | Viability EC50, No MS (p53RE-bla HCT-116 cells) | Viability EC50, RLM (p53RE-bla HCT-116 cells) | Viability Efficacy, HLM (p53RE-bla HCT-116 cells) | Viability Efficacy, No MS (p53RE-bla HCT-116 cells) | Viability Efficacy, RLM (p53RE-bla HCT-116 cells) | Depletion after 16 h of incubation with cells [4] [%] | EC50 ([5]; Homo sapiens, HCT-116, 0.5 h) [nM] | EC50 ([6]; Homo sapiens) [nM] | half-life (in vitro) [min] | EC50 ([7]; HCT-116) [nM] | other results
1 | CCOP(=S)(OCC)Oc1cc(C)nc(N(CC)CC)n1 [Pirimiphos-ethyl] | inactive | inactive | inactive | inactive | inactive | inactive | inactive | inactive | inactive | 95.16 ± 0.46 | – | – | – | – | EC50 [2]: 2070 nM; EC50 [2, 9]: 1910 nM and 3440 nM; EC50 ([3]; read-out: p53 activation EC50, HLM): 3880 nM
2 | OCCN(CCO)c1nc(N2CCCCC2)c2nc(N(CCO)CCO)nc(N3CCCCC3)c2n1 [Dipyridamole, reference compound] | – | – | – | – | – | – | – | – | – | – | 4360 | 5280 | 7.32 ± 0.59 | – | Emax [5, 10]: 174%
3 | COP(=S)(OC)Oc1cc(Cl)c(I)cc1Cl [Iodenphos] | – | – | – | – | – | – | – | – | – | 99.99 ± 0 | 24200 | 37000 | – | 32200 | p53 activation EC50 [1]: inactive; p53 activation efficacy [1]: inactive; p53 activation efficacy [2]: 81.587 and 107.715; EC50 ([2]; read-out: p53 activation EC50): 26600 nM; p53 activation EC50 [3]: inactive; Viability EC50 (p53RE-bla HCT-116 cells): inactive; Viability efficacy (p53RE-bla HCT-116 cells): inactive; Emax [7]: 84.9%; Emax ([8]; HCT-116, read-out: p53 activation efficacy): 54.2%
4 | CCOP(=S)(OCC)SCSCC [Phorate] | – | – | – | – | – | – | – | – | – | – | – | – | 104 ± 22.4 | – | –
5 | Cc1nc(N(C)C)nc(OC(=O)N(C)C)c1C [Pirimicarb] | – | – | – | – | – | – | – | – | – | – | – | – | 11.7 ± 0.52 | – | –
6 | Cc1cc(=O)n(-c2ccccc2)n1C [antipyrine, reference compound] | – | – | – | – | – | – | – | – | – | – | – | – | > 120 | – | –
7 | CCOP(=O)(NC(C)C)Oc1ccc(SC)c(C)c1 (centres unmarked) [Fenamiphos] | inactive | inactive | inactive | inactive | inactive | inactive | inactive | inactive | inactive | 99.41 ± 0.07 | 370 | 1340 | – | 1500 | efficacy [5]: 0.37 ± 0.15 ( 33.54 ± 3.04 ) %; efficacy [6]: 1.34 ± 0.33 ( 75.12 ± 11.54 ) %; EC50 [2, 9]: 958 nM; EC50 ([7]; HCT-116, read-out: p53 activation EC50, RLM): 1550 nM; EC50 [8]: 1490 nM
8 | CCOP(=S)(OCC)Oc1ccc([N+](=O)[O-])cc1 [Parathion] | inactive | inactive | inactive | inactive | inactive | inactive | inactive | inactive | inactive | 98.86 ± 0.34 | – | 1450 | – | 1110 | EC50 [5]: Inactive; Emax [6, 10]: 35.6%; Emax [7]: 36.3%; EC50 [8]: 1200 nM
9 | CCOP(=O)(SC(C)CC)N1CCSC1=O (centres unmarked) [Fosthiazate] | – | – | – | – | – | – | – | – | – | – | – | – | 15.2 ± 1.93 | – | –
